Consider 60 compounds from the OPERA property sets (Mansouri et al. 2018).

Values after ≈ are worked out from the molar mass of the structure shown.

For the first data set the following is noted: 20 °C.
By solubility is commonly meant the dissolved amount per volume that the medium holds. The low end stands for a poorly soluble substance, the high end for a readily soluble substance. Compound `Cc1cnc2c(C(=O)O)c(Cl)ccc2c1` had a solubility of 1010 µM (≈ 223 µg/mL).

For the compound `CCCSP(=O)(OCC)Oc1cnn(-c2ccc(Cl)cc2)c1` (stereo not given), the solubility was 91.5 µM (≈ 33 µg/mL).

Turning to `CNC(=O)Oc1ccccc1OC(CCl)OC` (stereo not given), the solubility is 5010 µM (≈ 1300 µg/mL). Compared with the last compound, the solubility is about 55-fold higher.

In turn, `O=C(O)CCCc1c[nH]c2ccccc12` displayed a solubility of 1230 µM (≈ 250 µg/mL).

As for `COc1cccc(N(C)C(=S)Oc2cccc(C(C)(C)C)c2)n1`, the solubility was found to be 0.968 µM (≈ 0.32 µg/mL).

As to `CC(Oc1ccc(Oc2cnc3cc(Cl)ccc3n2)cc1)C(=O)O` (stereo not given), the solubility was determined as 0.87 µM (≈ 0.3 µg/mL).

As to `CCOP(=O)(Oc1ccc(Cl)cc1Cl)Oc1ccc(Cl)cc1Cl`, the solubility was found to be 1.68 µM (≈ 0.7 µg/mL).

For the compound `Cc1nn(C)c(OCC(=O)c2ccccc2)c1C(=O)c1ccc(Cl)cc1Cl`, the solubility was 2230 µM (≈ 900 µg/mL).

Turning to `Cc1ccccc1C(=O)Nc1cccc(OC(C)C)c1`, the solubility came to 47.2 µM (≈ 12.7 µg/mL).

For the compound `CNC(=O)O/N=C(\C)C(C)S(C)(=O)=O` (stereo not given), the solubility is 940000 µM (≈ 209000 µg/mL).

In the case of `CCOC(=O)c1cnn(C)c1S(=O)(=O)NC(=O)Nc1nc(OC)cc(OC)n1`, the solubility was determined as 35 µM (≈ 14.5 µg/mL).

On to `CCC(C)c1ccccc1OC(=O)NC` (stereo not given), for which the solubility is 3180 µM (≈ 660 µg/mL).

Turning to `CCc1cccc(C)c1N(COC(C)C)C(=O)CCl`, the solubility came out at 648 µM (≈ 184 µg/mL).

`CC(C)C(O)(c1ccc(OC(F)(F)F)cc1)c1cncnc1` (stereo not given) gave a solubility of 365 µM (≈ 114 µg/mL).

`CC1COc2ccccc2N1C(=O)C(Cl)Cl` (stereo not given) showed a solubility of 76.9 µM (≈ 20 µg/mL).

Take `C=CCNC(=O)CN(CC=C)C(=O)C(Cl)Cl`: the solubility was 91300 µM (≈ 24200 µg/mL).

With `CC(C)(C)c1ccc(CCOc2ncnc3ccccc23)cc1`, the solubility stood at 0.718 µM (≈ 0.22 µg/mL).

`NCCO.O=C(Nc1ccc([N+](=O)[O-])cc1Cl)c1cc(Cl)ccc1O` displayed a solubility of 258 µM.

`CCCCCCC(C)OC(=O)COc1nc(F)c(Cl)c(N)c1Cl` (stereo not given) returned a solubility of 0.245 µM (≈ 0.09 µg/mL).

The compound `CSc1nnc(C(C)(C)C)c(=O)n1N` had a solubility of 5280 µM (≈ 1130 µg/mL). Against the preceding compound, the solubility is about 22000-fold higher.

Consider `CCNC(=O)C(C)OC(=O)Nc1ccccc1` (stereo not given), for which the solubility was 14800 µM (≈ 3500 µg/mL).

`CC#Cc1cc(C)nc(Nc2ccccc2)n1`: the solubility worked out at 13.9 µM (≈ 3.1 µg/mL). Against the preceding compound, the solubility is about 1100-fold lower.

`CCCCOC(=O)C1(O)c2ccccc2-c2ccccc21` returned a solubility of 129 µM (≈ 36.5 µg/mL).

The data set is the same for the next values; noted with them: 22 °C.
On to `CC(C)c1ccc(NC(=O)N(C)C)cc1`, for which the solubility is 291 µM (≈ 60 µg/mL).

The data set is the same for the next values; noted with them: 23 °C.
In turn, `CCN(CC)C(=O)SCc1ccccc1Cl` returned a solubility of 93.1 µM (≈ 24 µg/mL). This lies in the double-digit micromolar range.

Staying with this data set, now noted: 24 °C.
The compound `CCOC(=O)Cc1[nH]nc2ccc(Cl)cc12` returned a solubility of 943 µM (≈ 225 µg/mL).

The data set is the same for the next values; noted with them: 25 °C.
As for `CC1=C(C)S(=O)(=O)CCS1(=O)=O`, the solubility amounted to 21900 µM (≈ 4600 µg/mL).

With `CC1(C)CNC(=NN=C(/C=C/c2ccc(C(F)(F)F)cc2)/C=C/c2ccc(C(F)(F)F)cc2)NC1`, the solubility worked out at 0.0121 µM (≈ 0.006 µg/mL). In other words, the double-digit nanomolar range.

On to `O=C(O)CCCOc1ccc(Cl)cc1Cl`, for which the solubility was 213 µM (≈ 53 µg/mL).

Regarding `CCCN(CCC)c1c([N+](=O)[O-])cc(C(F)(F)F)c(N)c1[N+](=O)[O-]`, the solubility was found to be 0.0371 µM (≈ 0.013 µg/mL).

For the compound `CC(C)C1(C)N=C(c2ncccc2C(=O)O)NC1=O` (stereo not given), the solubility is 43300 µM (≈ 11300 µg/mL).

In turn, `CCCCN(CCCC)SN(C)C(=O)Oc1cccc2c1OC(C)(C)C2` yielded a solubility of 0.788 µM (≈ 0.3 µg/mL).

As to `CN(C)NC(=O)CCC(=O)O`, the solubility is 624000 µM (≈ 100000 µg/mL).

In turn, `CC(Oc1ccc(Oc2cnc3cc(Cl)ccc3n2)cc1)C(=O)OCC1CCCO1` (stereo not given) registered a solubility of 9.33 µM (≈ 4 µg/mL).

Turning to `CCOP(=S)(NC(C)CC)Oc1cc(C)ccc1[N+](=O)[O-]` (stereo not given), the solubility turned out to be 16.9 µM (≈ 5.62 µg/mL).

The compound `Cc1cnc(C2=NC(=O)C(C)(C(C)C)N2)c(C(=O)O)c1` (stereo not given) yielded a solubility of 8110 µM (≈ 2230 µg/mL).

`CCCCCOC(=O)COc1cc(N2C(=O)C3=C(CCCC3)C2=O)c(F)cc1Cl` returned a solubility of 0.446 µM (≈ 0.189 µg/mL).

In turn, `CCOc1cc(Oc2ccc(C(F)(F)F)cc2Cl)ccc1[N+](=O)[O-]` returned a solubility of 0.298 µM (≈ 0.108 µg/mL).

As for `Cc1c(Cl)ccc(OC(C)C(O)=Nc2ccccc2)c1Cl` (stereo not given), the solubility is 0.0987 µM (≈ 0.032 µg/mL).

Turning to `Cc1ccc(C(=O)COc2c(C(=O)c3ccc(Cl)c(C)c3Cl)c(C)nn2C)cc1`, the solubility was found to be 0.301 µM (≈ 0.13 µg/mL).

With `CC(Oc1ccc(Oc2ncc(Cl)cc2Cl)cc1)C(=O)N1CCCO1` (stereo not given), the solubility was 25.6 µM (≈ 9.8 µg/mL).

`COP(=S)(OC)Oc1c(Cl)cc(C)cc1Cl` registered a solubility of 2.2 µM (≈ 0.663 µg/mL).

Take `O=C(OCc1ccccc1)c1sc(Cl)nc1C(F)(F)F`: the solubility came to 1.55 µM (≈ 0.5 µg/mL).

In turn, `CCCCOC(=O)N(C)SN(C)C(=O)Oc1cccc2c1OC(C)(C)C2` yielded a solubility of 27.4 µM (≈ 10.5 µg/mL).

Turning to `Oc1ccccc1-c1ccccc1`, the solubility is 4110 µM (≈ 700 µg/mL). This solubility lies about 150-fold higher than the previous one.

Compound `O=C(O)c1cc(Oc2ccc(C(F)(F)F)cc2Cl)ccc1[N+](=O)[O-]` displayed a solubility of 332 µM (≈ 120 µg/mL). Against the preceding compound, the solubility is about 12-fold lower.

As to `CC(C)(N=C(O)C(Br)C(C)(C)C)c1ccccc1` (stereo not given), the solubility was determined as 11.3 µM (≈ 3.54 µg/mL).

In turn, `CCn1cc(C(=O)O)c(=O)c2cc3c(cc21)OCO3` yielded a solubility of 12.2 µM (≈ 3.2 µg/mL).

Turning to `COCC(C)N(C(=O)CCl)c1c(C)csc1C` (stereo not given), the solubility is 4350 µM (≈ 1200 µg/mL).

In turn, `CC(C)(C)C(O)/C(=C\c1ccc(Cl)cc1Cl)n1cncn1` (stereo not given) showed a solubility of 12.3 µM (≈ 4 µg/mL).

The compound `CON(C)C(=O)Nc1ccc(Oc2ccc3c(c2)OC(C)(OC)CC3(C)C)cc1` (stereo not given) gave a solubility of 0.999 µM (≈ 0.4 µg/mL).

Still in this data set, the particulars now being: 27 °C.
In turn, `CC(Oc1ccc2ccccc2c1)C(O)=Nc1ccccc1` (stereo not given) returned a solubility of 2.57 µM (≈ 0.75 µg/mL).

For the compound `CN(C)C(=O)C(c1ccccc1)c1ccccc1`, the solubility is 1090 µM (≈ 260 µg/mL).

In the case of `C/C=C\COCN(C(=O)CCl)c1c(CC)cccc1CC`, the solubility was 93.6 µM (≈ 29 µg/mL).

Still in this data set, the particulars now being: 30 °C.
Compound `O=C(Nc1ccc(Cl)cc1C(O)c1ccccc1)c1ccncc1` (stereo not given) came in with a solubility of 2.95 µM (≈ 1 µg/mL).

Staying with this data set, now noted: pH 5.0; 25 °C.
Compound `COc1cc(OC)nc(N=C(O)NS(=O)(=O)Nc2ccccc2C(=O)C2CC2)n1` showed a solubility of 0.403 µM (≈ 0.17 µg/mL).

Still in this data set, the particulars now being: pH 6.4; 21 °C.
For `O=C(Nc1ccccc1)Nc1ccnc(Cl)c1`, the solubility was 157 µM (≈ 39 µg/mL).

The data set is the same for the next values; noted with them: pH 7.0; 20 °C.
In turn, `OC(Cn1cncn1)(c1ccc(F)cc1)c1ccccc1F` (stereo not given) showed a solubility of 431 µM (≈ 130 µg/mL).

The same data set, now with this note: pH 7.0; 25 °C.
In turn, `OC(c1ccc(F)cc1)(c1cncnc1)c1ccccc1Cl` (stereo not given) displayed a solubility of 82.6 µM (≈ 26 µg/mL). This counts as double-digit micromolar.

Still in this data set, the particulars now being: pH 9.0; 20 °C.
Consider `Cc1ccc(N=c2sccn2C)c(C)c1`, for which the solubility turned out to be 687 µM (≈ 150 µg/mL).
